Consider eight compounds from PubChem BioAssay (NCI).

Some test systems named below: NCI-H226 lung; SNB-75 CNS; UACC-62 melanoma; HS 578T breast; OVCAR-3 ovarian; MOLT-4 leukemia; OVCAR-4 ovarian; MDA-MB-231 breast; BT-549 breast; MDA-MB-435; MCF7 breast; UACC-257 melanoma; 786-0 renal; RXF 393 renal; RPMI-8226 leukemia; SN12C renal; SF-268 CNS.
Common to all, as to test: NCI-60 cell line screen, 48 h

Several values for one entry are separate records, joined by “and”; a condition that tells them apart may be missing. Equal entries are not always repeated.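 Interpolation was linear, between the two tested concentrations surrounding the appropriate level; five concentrations were tested over 48 hours in 96-well plates. At the TGI there is no net growth.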 Bounds are passed on as bounds.

For the compound `CCN(CC)CCOC(=O)CCN1CC2CCC(CC2)C1`, the TGI with NCI-H226 lung, with SNB-75 CNS, in the test with UACC-62 melanoma, in the test on HS 578T breast, with OVCAR-3 ovarian and in the test on MOLT-4 leukemia was more than 100 µM throughout. Besides, the TGI in the test on OVCAR-4 ovarian, with MDA-MB-231 breast, in the test with BT-549 breast, in the test on MDA-MB-435, in the test with MCF7 breast and in the test on UACC-257 melanoma was more than 100 µM throughout. Besides, the TGI with 786-0 renal, with RXF 393 renal and in the test on RPMI-8226 leukemia was more than 100 µM in each case.
As for `O=C(O)Cc1cccc2c1OC(c1ccccc1)C(C(=O)c1ccccc1)C2=O` (centres undefined), the TGI in the test on NCI-H226 lung was more than 100 µM; in the test on SN12C renal, more than 100 µM; with SNB-75 CNS it was 51.3 µM; in the test on UACC-62 melanoma, 48.7 µM; with HS 578T breast it was more than 100 µM; in the test with OVCAR-3 ovarian, more than 100 µM. Also, the TGI in the test on MOLT-4 leukemia, with SF-268 CNS, with MDA-MB-231 breast, with BT-549 breast, in the test on MDA-MB-435 and in the test with MCF7 breast was more than 100 µM throughout. Also, the TGI in the test with UACC-257 melanoma, in the test with 786-0 renal, in the test with RXF 393 renal and with RPMI-8226 leukemia was more than 100 µM each time.
With `COc1ccccc1N1C(=O)CS(=O)(=O)C1c1cccc(Oc2ccccc2)c1` (centres undefined), the TGI is 31.8 µM in the test with NCI-H226 lung; 33.1 µM with SN12C renal; 48.2 µM in the test on SNB-75 CNS; 25.3 µM in the test with UACC-62 melanoma; 48.2 µM in the test with HS 578T breast; 41.2 µM with OVCAR-3 ovarian. The TGI came out at 38.8 µM in the test with MOLT-4 leukemia; 38.6 µM in the test with OVCAR-4 ovarian; 33.1 µM in the test on SF-268 CNS; 30.7 µM in the test on MDA-MB-231 breast; 31.8 µM in the test on BT-549 breast; 22.2 µM in the test on MDA-MB-435. Besides, the TGI came out at 20.4 µM in the test with MCF7 breast, 25.6 µM with UACC-257 melanoma, 34.9 µM in the test with 786-0 renal and 38.8 µM in the test on RXF 393 renal.
On to `COc1cc(S(=O)(=O)Nc2nc(-c3ccc(N)cc3)cs2)ccc1Cl`, for which the TGI in the test on NCI-H226 lung, in the test with SN12C renal, in the test on SNB-75 CNS, with UACC-62 melanoma, with HS 578T breast and in the test with OVCAR-3 ovarian was more than 100 µM each time. The TGI in the test with MOLT-4 leukemia, with OVCAR-4 ovarian, in the test on SF-268 CNS, in the test on MDA-MB-231 breast, with BT-549 breast and in the test on MDA-MB-435 was more than 100 µM each time. Also, the TGI in the test on MCF7 breast, in the test on UACC-257 melanoma, in the test with 786-0 renal and in the test with RXF 393 renal was more than 100 µM throughout.
Take `CCCNC(C#N)c1ccc(OCCCCCCCCCCOc2ccc(C(C#N)NCCC)cc2)cc1` (centres undefined): the TGI with NCI-H226 lung was 93.9 µM; with SN12C renal, more than 100 µM; in the test on SNB-75 CNS, more than 100 µM; in the test on UACC-62 melanoma it was more than 100 µM; in the test on HS 578T breast, more than 100 µM; in the test on OVCAR-3 ovarian, 81.1 µM. The TGI in the test with MOLT-4 leukemia is 39.8 µM; in the test on OVCAR-4 ovarian, more than 100 µM; in the test with SF-268 CNS it was more than 100 µM; with MDA-MB-231 breast it was more than 100 µM; in the test with BT-549 breast, more than 100 µM; in the test with MDA-MB-435 it was more than 100 µM. For the same compound, the TGI in the test on MCF7 breast was more than 100 µM; with UACC-257 melanoma, more than 100 µM; with 786-0 renal, more than 100 µM; in the test with RXF 393 renal, 65.1 µM.
With `CC(C)(C)OC(=O)NC(Cc1ccc(OCc2ccccc2)cn1)C(=O)NCc1ccccc1` (centres undefined), the TGI in the test on SN12C renal is 64.6 µM; with SNB-75 CNS, 78.5 µM; in the test on UACC-62 melanoma, 32.5 µM; in the test with HS 578T breast, more than 100 µM; with OVCAR-3 ovarian, 43.2 µM; in the test with MOLT-4 leukemia, 42 µM. For the same compound, the TGI in the test on SF-268 CNS stood at 75 µM; in the test with MDA-MB-231 breast, 75.1 µM; with BT-549 breast it was 48.6 µM; in the test on MDA-MB-435, 48.1 µM; in the test with MCF7 breast, 97.9 µM; in the test on UACC-257 melanoma, 34.5 µM. In addition, the TGI was more than 100 µM with 786-0 renal, more than 100 µM with RXF 393 renal and 44.9 µM in the test on RPMI-8226 leukemia.
For the compound `CCOC(=O)CCC(NC(=O)c1ccc(Nc2nc3ccccc3n3cccc23)cc1)C(=O)OCC` (centres undefined), the TGI with SNB-75 CNS was 53.6 µM; in the test with UACC-62 melanoma, 53.6 µM; in the test with HS 578T breast, more than 100 µM; in the test with OVCAR-3 ovarian it was 44.6 µM; with MOLT-4 leukemia, 82.8 µM; in the test with SF-268 CNS, more than 100 µM. In addition, the TGI is 48.4 µM in the test with MDA-MB-231 breast; 77.3 µM in the test with BT-549 breast; more than 100 µM with MDA-MB-435; more than 100 µM in the test on MCF7 breast; 72.5 µM in the test on UACC-257 melanoma; 33.2 µM with 786-0 renal. The TGI with RXF 393 renal is 32.8 µM; in the test with RPMI-8226 leukemia, more than 100 µM.
`Cc1ccc(CC2(OCCN(C)C)CCC(C(C)(C)C)CC2)cc1` (centres undefined): the TGI with NCI-H226 lung was 15.6 µM and 15.4 µM; in the test with SN12C renal, 17.6 µM and 17.8 µM; with SNB-75 CNS, 21.9 µM and 20.3 µM; with UACC-62 melanoma it was 5.48 µM and 10 µM; in the test on HS 578T breast it was 28.4 µM and 21.2 µM; with OVCAR-3 ovarian, 25.8 µM and 27.2 µM. Also, the TGI in the test on MOLT-4 leukemia is 4.11 µM and 4.8 µM; with OVCAR-4 ovarian, 15.2 µM and 16.6 µM; in the test with SF-268 CNS, 27.9 µM and 23.5 µM; in the test with MDA-MB-231 breast, 19 µM and 18.8 µM; with BT-549 breast, 16.1 µM and 19.8 µM; in the test with MDA-MB-435, 5.79 µM and 5.96 µM. The TGI with MCF7 breast was 7.74 µM and 8.45 µM; in the test with UACC-257 melanoma it was 7.65 µM and 4.74 µM; in the test on 786-0 renal, 4.45 µM and 3.7 µM; with RPMI-8226 leukemia it was 4 µM and 4.96 µM.
